From patent publication US20220403339A1, “3D HUMAN LIVER ORGAN MODEL CONSTRUCTING METHOD, 3D HUMAN LIVER ORGAN MODEL AND USE THEREOF” (priority 2020, published 2022)

What was measured:
[1] = tested on: human liver cancer cell lines hepG2; type: cell-based; conditions: 100 μM drug; 3D model I-1 (hepG2, 2000 cells per micropore) vs 2D comparison model I; FIG. 8
Protocol: (§1) 3. […] In a long-time administration test of the 3D human liver organ model, 100 μM is administered once, and if repeated administration is required, a drug is changed in the middle and the concentration is maintained. Each 3D human liver organ model and each 2D liver organ model need to be provided with a blank group, a negative control group and a positive control group, and each group is provided with six replicate wells.
(§2) 4. […] After drug incubation is completed, the culture medium with the drugs is removed, 100 μL of a mixed solution of a cell titer blue stock solution and a complete culture medium in a ratio of 1:5 is added, incubation is conducted for 3 h at 37° C., and a detection wavelength is […]. For example, the Cell titer 3D glo is added to evaluate the ATP of the 3D liver model, so that the action effect of the drugs is evaluated. After drug incubation is completed, the culture medium with the drugs is removed, 100 μL of a mixed solution of a Cell titer 3D glo stock solution and a complete culture medium in a ratio of 1:1 is added, incubation is conducted for 0.5 h at normal temperature, and detection is conducted in a Luminescence mode. For example, a high-content imaging technology is used for imaging characterization of the number of living and dead cells, and characterization of cell mitochondrial activity and membrane potential to evaluate hepatotoxicity drugs. The embodiment is applicable to, but not limited to, the above characterization method.

[2] = tested on: human primary liver cells; conditions: 100 μM drug; 3D model II-2 (human primary liver cells, 5000 cells per micropore) vs 2D comparison model II; FIG. 15
Protocol: as §1, §2

[3] = clinical classification; cited from earlier work

Row | SMILES | hepatotoxicity inhibition on the 3D liver organ model compared with the 2D liver organ comparison model [1] | hepatotoxicity inhibition on the 3D liver organ model compared with the 2D liver organ comparison model [2] | clinically confirmed hepatotoxicity class [3]
1 | COc1ccccc1Oc1c(NS(=O)(=O)c2ccc(C(C)(C)C)cc2)nc(-c2ncccn2)nc1OCCO [compound 5, bosentan] | stronger hepatotoxicity inhibition | stronger hepatotoxicity inhibition | low-hepatotoxicity
2 | CN(CCOc1ccc(CC2SC(=O)NC2=O)cc1)c1ccccn1 (stereo not drawn) [compound 6, rosiglitazone] | stronger hepatotoxicity inhibition | stronger hepatotoxicity inhibition | low-hepatotoxicity
3 | Cc1ccc(-c2cc(C(F)(F)F)nn2-c2ccc(S(N)(=O)=O)cc2)cc1 [compound 8, celecoxib] | stronger hepatotoxicity inhibition |  | low-hepatotoxicity
4 | CN(C)[C@@H]1C(=O)C(C(N)=O)=C(O)[C@@]2(O)C(=O)C3=C(O)c4c(O)cccc4[C@@](C)(O)[C@H]3C[C@@H]12 [compound 9, tetracycline] |  | stronger hepatotoxicity inhibition | low-hepatotoxicity
5 | O=C(OCC(O)CO)c1ccccc1Nc1ccnc2cc(Cl)ccc12 (stereo not drawn) [compound 10, glafenine] |  | stronger hepatotoxicity inhibition | low-hepatotoxicity
6 | CN(C)CCC=C1c2ccccc2CCc2ccccc21 [compound 12, amitriptyline] | stronger hepatotoxicity inhibition |  | low-hepatotoxicity
7 | CC(=O)Nc1ccc(O)cc1 [compound 15, paracetamol] |  | stronger hepatotoxicity inhibition | 
